Source: patent US20260176320A1, “MODULATORS OF G-PROTEIN COUPLED RECEPTORS” (priority 2018, published 2026)

What was measured:
Assay type in all cases: cell-based
GLP-1R [1] = molecular target: T1, GLP-1R (Homo sapiens, UniProt P43220); assay: HitHunter cAMP assay (GLP-1R); conditions: Table 3A, cAMP; for Emax: read-out: (Emax) GLP-1R; for EC50: read-out: EC50 GLP-1R/nM
Summary of the method: (§1)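 Cells were resuspended in HBSS plus HEPES, IBMX (625 μM) and BSA, then dispensed with antibody at 10,000 per well. Agonists followed as 22-point twofold series, 30 min at room temperature. Antibody reagent and detection steps ran 1 h and overnight in the dark before luminescence.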

GIP-R = molecular target: T2, GIP-R (Homo sapiens, UniProt P48546); assay: HitHunter cAMP assay (GIP-R); conditions: Table 3A, cAMP; for Emax: read-out: (Emax) GIP-R; for EC50: read-out: EC50 GIP-R/nM
T2 sequence (P48546 22-466): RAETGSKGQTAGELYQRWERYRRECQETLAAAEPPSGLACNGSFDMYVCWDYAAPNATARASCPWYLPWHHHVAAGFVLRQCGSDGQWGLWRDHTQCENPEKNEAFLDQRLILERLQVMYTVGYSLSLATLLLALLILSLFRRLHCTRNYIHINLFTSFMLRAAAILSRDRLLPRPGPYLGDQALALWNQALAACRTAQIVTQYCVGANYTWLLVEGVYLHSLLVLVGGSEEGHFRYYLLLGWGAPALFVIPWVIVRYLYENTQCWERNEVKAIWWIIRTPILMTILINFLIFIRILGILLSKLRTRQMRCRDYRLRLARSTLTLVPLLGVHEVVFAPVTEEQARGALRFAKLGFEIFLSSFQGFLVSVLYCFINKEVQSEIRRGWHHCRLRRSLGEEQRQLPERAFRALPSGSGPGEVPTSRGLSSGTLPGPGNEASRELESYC
Summary of the method: as §1

GLP-1R [2] = molecular target: T1, GLP-1R; assay: PathHunter β-arrestin assay; conditions: PathHunter β-arrestin assay; read-out: β-arrestin activity EC50
Summary of the method: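 Agonist concentration–response (22 points, 2-fold steps, duplicates) was run on cells plated the previous day in BSA-supplemented (0.2%) medium. Stimulation lasted 90 min at 37 °C, followed by a 3 h dark incubation with detection reagent at room temperature and a luminescence read.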

T1 sequence (P43220 24-463): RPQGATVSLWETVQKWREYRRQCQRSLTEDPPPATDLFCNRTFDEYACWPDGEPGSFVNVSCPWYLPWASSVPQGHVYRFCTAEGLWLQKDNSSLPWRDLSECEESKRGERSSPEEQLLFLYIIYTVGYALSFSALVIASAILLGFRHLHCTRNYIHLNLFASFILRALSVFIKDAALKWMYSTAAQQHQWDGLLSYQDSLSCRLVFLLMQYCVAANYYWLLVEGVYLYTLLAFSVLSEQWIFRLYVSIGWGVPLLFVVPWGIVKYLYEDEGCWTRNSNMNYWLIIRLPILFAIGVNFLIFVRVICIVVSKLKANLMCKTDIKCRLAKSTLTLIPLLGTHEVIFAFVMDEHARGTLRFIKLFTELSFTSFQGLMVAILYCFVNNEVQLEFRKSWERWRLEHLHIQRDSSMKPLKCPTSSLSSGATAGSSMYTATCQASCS

Compound | Emax (GLP-1R [1]) [%] | EC50 (GLP-1R [1]) [nM] | Emax (GIP-R) [%] | EC50 (GIP-R) [nM] | EC50 (GLP-1R [2]) [nM]
CCCCCCCCCCCCCCCC(=O)N[C@@H](CCC(=O)NCCCC[C@H](NC(=O)[C@H](CO)NC(=O)[C@@H]1CCCN1C(=O)[C@@H]1CCCN1C(=O)[C@@H]1CCCN1C(=O)[C@H](C)NC(=O)CNC(=O)[C@H](CO)NC(=O)[C@H](CO)NC(=O)[C@@H]1CCCN1C(=O)CNC(=O)CNC(=O)[C@H](C)NC(=O)[C@H](CC(C)C)NC(=O)[C@H](CC(C)C)NC(=O)[C@H](Cc1c[nH]c2ccccc12)NC(=O)[C@H](CC(N)=O)NC(=O)[C@@H](NC(=O)[C@H](Cc1ccccc1)NC(=O)[C@H](CCC(=O)O)NC(=O)C(C)(C)NC(=O)[C@H](C)NC(=O)[C@H](C)NC(=O)[C@H](CCC(N)=O)NC(=O)[C@H](CCCCN)NC(=O)[C@H](CC(=O)O)NC(=O)[C@H](CC(C)C)NC(=O)[C@H](Cc1ccc(O)cc1)NC(=O)[C@@H](NC(=O)[C@H](CO)NC(=O)[C@H](Cc1ccc(O)cc1)NC(=O)[C@H](CC(=O)O)NC(=O)[C@H](CO)NC(=O)[C@@H](NC(=O)[C@H](Cc1ccccc1)NC(=O)[C@@H](NC(=O)CNC(=O)[C@H](CCC(=O)O)NC(=O)C(C)(C)NC(=O)CCN1CCCCC1=O)[C@@H](C)O)[C@@H](C)O)[C@@H](C)CC)C(C)C)C(N)=O)C(=O)O [Compound 210] | 90 | < 0.1 | 40 | 10 to 100 | 10 to 1000
CCCCCCCCCCCCCCCC(=O)N[C@@H](CCC(=O)NCCCC[C@H](NC(=O)[C@H](CO)NC(=O)[C@@H]1CCCN1C(=O)[C@@H]1CCCN1C(=O)[C@@H]1CCCN1C(=O)[C@H](C)NC(=O)CNC(=O)[C@H](CO)NC(=O)[C@H](CO)NC(=O)[C@@H]1CCCN1C(=O)CNC(=O)CNC(=O)[C@H](C)NC(=O)[C@H](CC(C)C)NC(=O)[C@H](CC(C)C)NC(=O)[C@H](Cc1c[nH]c2ccccc12)NC(=O)[C@H](CC(N)=O)NC(=O)[C@@H](NC(=O)[C@H](Cc1ccccc1)NC(=O)[C@H](CCC(=O)O)NC(=O)C(C)(C)NC(=O)[C@H](C)NC(=O)[C@H](C)NC(=O)[C@H](CCC(N)=O)NC(=O)[C@H](CCCCN)NC(=O)[C@H](CC(=O)O)NC(=O)[C@H](CC(C)C)NC(=O)[C@H](Cc1ccc(O)cc1)NC(=O)[C@@H](NC(=O)[C@H](CO)NC(=O)[C@H](Cc1ccc(O)cc1)NC(=O)[C@H](CC(=O)O)NC(=O)[C@H](CO)NC(=O)[C@@H](NC(=O)[C@H](Cc1ccccc1)NC(=O)[C@@H](NC(=O)CNC(=O)[C@H](CCC(=O)O)NC(=O)[C@H](C)NC(=O)CN1CCCCC1=O)[C@@H](C)O)[C@@H](C)O)[C@@H](C)CC)C(C)C)C(N)=O)C(=O)O [Compound 211] | 91 | < 0.1 | 50 | 0.1 to 1 | 10 to 1000
CCCCCCCCCCCCCCCC(=O)N[C@@H](CCC(=O)NCCCC[C@H](NC(=O)[C@H](CO)NC(=O)[C@@H]1CCCN1C(=O)[C@@H]1CCCN1C(=O)[C@@H]1CCCN1C(=O)[C@H](C)NC(=O)CNC(=O)[C@H](CO)NC(=O)[C@H](CO)NC(=O)[C@@H]1CCCN1C(=O)CNC(=O)CNC(=O)[C@H](C)NC(=O)[C@H](CC(C)C)NC(=O)[C@H](CC(C)C)NC(=O)[C@H](Cc1c[nH]c2ccccc12)NC(=O)[C@H](CC(N)=O)NC(=O)[C@@H](NC(=O)[C@H](Cc1ccccc1)NC(=O)[C@H](CCC(=O)O)NC(=O)C(C)(C)NC(=O)[C@H](C)NC(=O)[C@H](C)NC(=O)[C@H](CCC(N)=O)NC(=O)[C@H](CCCCN)NC(=O)[C@H](CC(=O)O)NC(=O)[C@H](CC(C)C)NC(=O)[C@H](Cc1ccc(O)cc1)NC(=O)[C@@H](NC(=O)[C@H](CO)NC(=O)[C@H](Cc1ccc(O)cc1)NC(=O)[C@H](CC(=O)O)NC(=O)[C@H](CO)NC(=O)[C@@H](NC(=O)[C@H](Cc1ccccc1)NC(=O)[C@@H](NC(=O)CNC(=O)[C@H](CCC(=O)O)NC(=O)[C@H](C)NC(=O)CCN1CCCCC1=O)[C@@H](C)O)[C@@H](C)O)[C@@H](C)CC)C(C)C)C(N)=O)C(=O)O [Compound 212] | 90 | < 0.1 | 50 | 1 to 10 | 10 to 1000
CCCCCCCCCCCCCCCC(=O)N[C@@H](CCC(=O)NCCCC[C@H](NC(=O)[C@H](CO)NC(=O)[C@@H]1CCCN1C(=O)[C@@H]1CCCN1C(=O)[C@@H]1CCCN1C(=O)[C@H](C)NC(=O)CNC(=O)[C@H](CO)NC(=O)[C@H](CO)NC(=O)[C@@H]1CCCN1C(=O)CNC(=O)CNC(=O)[C@H](C)NC(=O)[C@H](CC(C)C)NC(=O)[C@H](CC(C)C)NC(=O)[C@H](Cc1c[nH]c2ccccc12)NC(=O)[C@H](CC(N)=O)NC(=O)[C@@H](NC(=O)[C@H](Cc1ccccc1)NC(=O)[C@H](CCC(=O)O)NC(=O)C(C)(C)NC(=O)[C@H](C)NC(=O)[C@H](C)NC(=O)[C@H](CCC(N)=O)NC(=O)[C@H](CCCCN)NC(=O)[C@H](CC(=O)O)NC(=O)[C@H](CC(C)C)NC(=O)[C@H](Cc1ccc(O)cc1)NC(=O)[C@@H](NC(=O)[C@H](CO)NC(=O)[C@H](Cc1ccc(O)cc1)NC(=O)[C@H](CC(=O)O)NC(=O)[C@H](CO)NC(=O)[C@@H](NC(=O)[C@H](Cc1ccccc1)NC(=O)[C@@H](NC(=O)CNC(=O)[C@H](CCC(=O)O)NC(=O)[C@@H](C)NC(=O)CN1CCCCC1=O)[C@@H](C)O)[C@@H](C)O)[C@@H](C)CC)C(C)C)C(N)=O)C(=O)O [Compound 213] | 90 | < 0.1 | 59 | 0.1 to 1 | 10 to 1000
CCCCCCCCCCCCCCCC(=O)N[C@@H](CCC(=O)NCCCC[C@H](NC(=O)[C@H](CO)NC(=O)[C@@H]1CCCN1C(=O)[C@@H]1CCCN1C(=O)[C@@H]1CCCN1C(=O)[C@H](C)NC(=O)CNC(=O)[C@H](CO)NC(=O)[C@H](CO)NC(=O)[C@@H]1CCCN1C(=O)CNC(=O)CNC(=O)[C@H](C)NC(=O)[C@H](CC(C)C)NC(=O)[C@H](CC(C)C)NC(=O)[C@H](Cc1c[nH]c2ccccc12)NC(=O)[C@H](CC(N)=O)NC(=O)[C@@H](NC(=O)[C@H](Cc1ccccc1)NC(=O)[C@H](CCC(=O)O)NC(=O)C(C)(C)NC(=O)[C@H](C)NC(=O)[C@H](C)NC(=O)[C@H](CCC(N)=O)NC(=O)[C@H](CCCCN)NC(=O)[C@H](CC(=O)O)NC(=O)[C@H](CC(C)C)NC(=O)[C@H](Cc1ccc(O)cc1)NC(=O)[C@@H](NC(=O)[C@H](CO)NC(=O)[C@H](Cc1ccc(O)cc1)NC(=O)[C@H](CC(=O)O)NC(=O)[C@H](CO)NC(=O)[C@@H](NC(=O)[C@H](Cc1ccccc1)NC(=O)[C@@H](NC(=O)CNC(=O)[C@H](CCC(=O)O)NC(=O)[C@@H](C)NC(=O)CCN1CCCCC1=O)[C@@H](C)O)[C@@H](C)O)[C@@H](C)CC)C(C)C)C(N)=O)C(=O)O [Compound 214] | 95 | < 0.1 | 45 | 1 to 10 | 10 to 1000
